These results are taken from patent US20140094465A1, “Compounds as S-Nitrosoglutathione Reductase Inhibitors” (N30 PHARMACEUTICALS, INC., priority 2011, published 2014).

Like-named read-outs stand apart in the source and are kept apart here.

The test addresses T1, S-nitrosoglutathione reductase (GSNOR) (Homo sapiens, UniProt P11766).
T1 construct: made in house; host or cells: E. coli
Nature of the test: GSNOR assay (inhibition of GSNOR activity, NADH absorbance at 340 nm). In kind it is biochemical. As to the method: Various compounds were tested in vitro for their ability to inhibit GSNOR activity.
GSNOR expression and purification is described in Biochemistry 2000, 39, 10720-10729.
Pre-cultures were grown from stabs of a GSNOR glycerol stock in 2XYT media containing 100 ug/ml ampicillin after an overnight incubation at 37° C. […] GSNOR expression was induced with 0.1% arabinose in an overnight incubation at 20° C.
E. coli cell paste was lysed by nitrogen cavitation and the clarified lysate purified by Ni affinity chromatography on an AKTA FPLC (Amersham Pharmacia). The column was eluted in 20 mM Tris pH 8.0/250 mM NaCl with a 0-500 mM imidazole gradient. Eluted GSNOR fractions containing the Smt-GSNOR fusion were digested overnight with Ulp-1 at 4° C. to remove the affinity tag then re-run on the Ni column under the same conditions. GSNOR was recovered in the flowthrough fraction and for crystallography is further purified by Q-Sepharose and Heparin flowthrough chromatography in 20 mM Tris pH 8.0, 1 mM DTT, 10 uM ZnSO4.
GSNOR assay: GSNO and enzyme/NADH Solutions are made up fresh each day. The solutions are filtered and allowed to warm to room temperature. GSNO solution: 100 mM NaPO4 (pH 7.4), 0.480 mM GSNO. 396 μL of GSNO Solution is added to a cuvette followed by 8 μL of test compound in DMSO (or DMSO only for full reaction control) and mixed with the pipette tip. Compounds to be tested are made up at a stock concentration of 10 mM in 100% DMSO. 2 fold serial dilutions are done in 100% DMSO. 8 μL of each dilution are added to an assay so that the final concentration of DMSO in the assay is 1%. The concentrations of compounds tested range from 100 to 0.003 μM. Enzyme/NADH solution: 100 mM NaPO4 (pH 7.4), 0.600 mM NADH, 1.0 μg/mL GSNO Reductase. 396 μL of the Enzyme/NADH solution is added to the cuvette to start the reaction. The cuvette is placed in the Cary 3E UV/Visible Spectrophotometer and the change in 340 nm absorbance/min at 25° C. is recorded for 3 minutes. The assays are done in triplicate for each compound concentration. IC50's for each compound are calculated using the standard curve analysis in the Enzyme Kinetics Module of SigmaPlot.
Final assay conditions: 100 mM NaPO4, pH 7.4, 0.240 mM GSNO, 0.300 mM NADH, 0.5 μg/mL GSNO Reductase, and 1% DMSO. Final volume: 800 μL/cuvette.

Where [1] appears, read: GSNOR inhibitor activity, Tables 1-6, read-out: IC50 range.
The mark [2] stands for this setting: Table 7, GSNOR inhibition, IC50 range class a/b/c, read-out: IC50.
[3] abbreviates: Table 8, GSNOR inhibition, IC50 range class a/b/c, read-out: IC50.

T1 sequence (P11766 whole entry): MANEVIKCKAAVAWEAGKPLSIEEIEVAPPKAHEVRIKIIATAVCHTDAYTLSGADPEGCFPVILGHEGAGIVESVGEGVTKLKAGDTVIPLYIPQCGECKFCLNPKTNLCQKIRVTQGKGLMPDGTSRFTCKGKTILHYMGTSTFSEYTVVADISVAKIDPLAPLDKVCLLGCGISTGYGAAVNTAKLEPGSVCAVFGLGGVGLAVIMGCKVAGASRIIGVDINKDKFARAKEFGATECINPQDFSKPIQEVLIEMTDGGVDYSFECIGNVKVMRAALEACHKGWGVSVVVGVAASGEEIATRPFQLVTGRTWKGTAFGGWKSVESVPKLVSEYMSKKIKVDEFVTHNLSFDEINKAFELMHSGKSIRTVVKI

For the compound `O=C(O)c1ccc(-c2ccc3cc(O)ccc3n2)c(Br)c1` [Compound I-46, 3-bromo-4-(6-hydroxyquinolin-2-yl)benzoic acid], under setting [1], the IC50 is under 0.1 µM.
Regarding `CS(=O)(=O)NC(=O)c1ccc(-c2c(C(F)(F)F)oc3cc(O)ccc3c2=O)cc1` [IV-32], the IC50 under setting [1] lay in the range of 0.1 to 1 µM.
Turning to `O=c1nc(-c2ccc(-c3ccc4cc(O)ccc4n3)cc2F)[nH]o1` [Compound I-20], the IC50 under setting [1] was under 0.1 µM.
As for `Cc1cc(C(=O)O)ccc1-c1ccc2c(F)c(O)ccc2c1` [III-33], the half-maximal inhibitory concentration (IC50) under setting [1] is under 0.1 µM.
In the case of `O=C(O)[C@H]1CC[C@@H](c2nc3ccc(O)cc3cc2C(F)(F)F)CC1` [Compound I-44], under setting [1], the IC50 lay within 1 to 10 µM.
Take `CC(C(=O)c1ccc(O)cc1O)c1ccc(C(=O)O)cc1` (stereo not drawn) [VI-12, 4-(1-(2,4-dihydroxyphenyl)-1-oxopropan-2-yl)benzoic acid]: under setting [1], the IC50 is 1 to 10 µM.
With `O=C(O)c1ccc(CC(=O)c2cc(F)c(O)cc2F)c(F)c1` [VI-7, 4-(2-(2,5-difluoro-4-hydroxyphenyl)-2-oxoethyl)-3-fluorobenzoic acid], the half-inhibitory concentration (IC50) under setting [1] lay within 0.1 to 1 µM.
`O=C(O)c1ccc(-c2cc3ccc(O)cc3cc2O)cc1` [III-25, 4-(3,6-dihydroxynaphthalen-2-yl)benzoic acid]: the IC50 under setting [1] lay in the range of 1 to 10 µM.
As to `O=C(O)c1ccc(-c2ccc3cc(O)ccc3n2)cc1O` [Compound I-60, 2-hydroxy-4-(6-hydroxyquinolin-2-yl)benzoic acid], the IC50 under setting [1] was under 0.1 µM.
With `O=C(O)c1ccc(-c2ccc(-c3ccc(O)c(F)c3)s2)s1` [VII-17, 5′-(3-fluoro-4-hydroxyphenyl)-[2,2′-bithiophene]-5-carboxylic acid], under setting [2], the IC50 was under 0.1 µM.
For the compound `O=C(O)C1CCN(c2ncc3cc(O)ccc3n2)CC1` [II-7], the IC50 under setting [1] is 1 to 10 µM.
`O=C(O)c1ccc(-c2ccc(-c3ccc(O)cc3)[nH]2)cc1` [VII-23, 4-(5-(4-hydroxyphenyl)-1H-pyrrol-2-yl)benzoic acid]: the IC50 under setting [2] fell in the range of 1 to 10 µM.
On to `O=C(O)c1ccc(-c2ccc3c(F)c(O)ccc3c2)c(F)c1` [III-32], for which, under setting [1], the IC50 is under 0.1 µM.
Consider `O=C(O)c1ccc(-c2ccc(-c3ccc(O)c(F)c3)s2)cc1` [VII-7, 4-(5-(3-fluoro-4-hydroxyphenyl)thiophen-2-yl)benzoic acid], for which, under setting [2], the IC50 lay in the range of 0.1 to 1 µM.
In the case of `O=C(O)c1ccc(CCC(=O)c2ccc(O)c(F)c2F)cc1` [VI-29, 4-(3-(2,3-difluoro-4-hydroxyphenyl)-3-oxopropyl)benzoic acid], the IC50 under setting [1] lay within 1 to 10 µM.
On to `Cc1oc2cc(O)ccc2c(=O)c1-c1ccc(-c2nnn[nH]2)cc1` [IV-28], for which, under setting [1], the IC50 was under 0.1 µM.
On to `N#Cc1cc2cc(O)ccc2nc1-c1ccc(C(=O)O)cc1` [Compound I-52, 4-(3-cyano-6-hydroxyquinolin-2-yl)benzoic acid], for which, under setting [1], the IC50 was under 0.1 µM.
In the case of `O=C(O)c1ccc(CC(=O)c2ccc(O)cc2)c(F)c1` [VI-9, 3-fluoro-4-(2-(4-hydroxyphenyl)-2-oxoethyl)benzoic acid], under setting [1], the IC50 was under 0.1 µM.
Consider `Cc1cc2cc(O)ccc2c(=O)n1-c1ccc(C(=O)O)cc1` [VIII-13, 4-(6-hydroxy-3-methyl-1-oxoisoquinolin-2(1H)-yl)benzoic acid], for which the IC50 under setting [3] lay within 0.1 to 1 µM.
With `COc1ccc(-c2oc3cc(O)ccc3c(=O)c2Oc2ccc(C(=O)O)cc2)cc1` [Compound V-9, 4-(7-hydroxy-2-(4-methoxyphenyl)-4-oxo-4H-chromen-3-yloxy)benzoic acid], the IC50 under setting [1] fell in the range of 1 to 10 µM.
For `Cc1cc(C(=O)O)ccc1-c1ccc2c(F)c(O)ccc2n1` [Compound I-58], the IC50 under setting [1] was under 0.1 µM.
As to `O=c1[nH]nc(-c2ccc(-c3ccc4cc(O)ccc4n3)cc2)o1` [Compound I-24], the IC50 under setting [1] is under 0.1 µM.
In the case of `O=c1c(-c2ccc(-c3nnn[nH]3)cc2)c(C(F)F)oc2cc(O)ccc12` [IV-27], the IC50 under setting [1] was under 0.1 µM.
`Oc1ccc2nc(-c3ccc(-c4nn[nH]n4)cc3)c(C(F)(F)F)nc2c1` [II-10]: the IC50 under setting [1] is under 0.1 µM.
For the compound `COc1cc(C(=O)O)ccc1-c1cc(F)c2c(F)c(O)ccc2c1` [III-43, 4-(4,5-difluoro-6-hydroxynaphthalen-2-yl)-3-methoxybenzoic acid], the IC50 under setting [1] is under 0.1 µM.
`O=C(O)c1ccc(Nc2c(C(F)(F)F)oc3cc(O)ccc3c2=O)cc1` [Compound V-15, 4-(7-hydroxy-4-oxo-2-(trifluoromethyl)-4H-chromen-3-ylamino)benzoic acid]: the IC50 under setting [1] was in the range of 1 to 10 µM.
As to `CN(C)c1cc(-c2ccc(C(=O)O)cc2)nc2ccc(O)cc12` [Compound I-47, 4-(4-(dimethylamino)-6-hydroxyquinolin-2-yl)benzoic acid], the IC50 under setting [1] was in the range of 0.1 to 1 µM.
As for `O=C(O)c1ccc(-c2cc(F)c3c(F)c(O)ccc3c2)cc1` [III-42, 4-(4,5-difluoro-6-hydroxynaphthalen-2-yl)benzoic acid], under setting [1], the IC50 is under 0.1 µM.
For `O=C(O)c1ccc(-c2ccc3cc(O)ccc3n2)cc1F` [Compound I-10], the IC50 under setting [1] was under 0.1 µM.
On the same count and under the same terms, the figure for `CC(C)c1oc2cc(O)ccc2c(=O)c1Oc1ccc(C(=O)O)cc1` [Compound V-3, 4-(7-hydroxy-2-isopropyl-4-oxo-4H-chromen-3-yloxy)benzoic acid] is 1 to 10 µM.
On to `O=C(O)c1ccc(-c2c(C(F)(F)F)oc3cc(O)ccc3c2=O)cc1F` [IV-14], for which, under setting [1], the IC50 was under 0.1 µM.
Turning to `O=c1c(-c2ccc(-c3nnn[nH]3)cc2Cl)c(C(F)(F)F)oc2cc(O)ccc12` [IV-39], the IC50 under setting [1] was under 0.1 µM.
On to `CN(C)c1cc(C(=O)O)ccc1-c1ccc2cc(O)ccc2n1` [Compound I-25], for which the IC50 under setting [1] was under 0.1 µM.
Regarding `O=C(O)c1ccc(-c2ccc3cc(O)ccc3[n+]2[O-])c(Cl)c1` [Compound I-50, 2-(4-carboxy-2-chlorophenyl)-6-hydroxyquinoline 1-oxide], under setting [1], the IC50 lay in the range of 0.1 to 1 µM.
The same measure, in the same setting: the figure for `O=C(O)c1ccc(CS(=O)(=O)c2ccc(O)c(F)c2)c(F)c1` [VI-20, 3-fluoro-4-(((3-fluoro-4-hydroxyphenyl)sulfonyl)methyl)benzoic acid] is under 0.1 µM; for `O=C(O)c1ccc(-c2cc(F)c3cc(O)ccc3n2)c(F)c1` [Compound I-40, 3-fluoro-4-(4-fluoro-6-hydroxyquinolin-2-yl)benzoic acid] it is under 0.1 µM; for `Cc1oc2cc(O)ccc2c(=O)c1-c1ccc(C(=O)O)cc1` [IV-5] it is 0.1 to 1 µM.
Same read-out and setting: the figure for `O=C(O)c1ccc(CC(=O)c2cc(F)c(O)c(F)c2)c(F)c1` [VI-8, 4-(2-(3,5-difluoro-4-hydroxyphenyl)-2-oxoethyl)-3-fluorobenzoic acid] is 0.1 to 1 µM.
With `COc1cc(C(=O)O)ccc1-c1cc(F)c2cc(O)ccc2n1` [Compound I-48, 4-(4-fluoro-6-hydroxyquinolin-2-yl)-3-methoxybenzoic acid], the IC50 under setting [1] is under 0.1 µM.
Take `O=C(O)c1ccc(-c2ccc3cc(O)ccc3c2)cn1` [III-4]: the IC50 under setting [1] was 1 to 10 µM.
In the case of `Cn1c(-c2ccc(C(=O)O)cc2)nc2ccc(O)cc2c1=O` [VIII-10, 4-(6-hydroxy-3-methyl-4-oxo-3,4-dihydroquinazolin-2-yl)benzoic acid], under setting [3], the IC50 was under 0.1 µM.
Turning to `Cc1cc2cc(O)ccc2cc1-c1ccc(C(=O)O)cc1` [III-27, 4-(6-hydroxy-3-methylnaphthalen-2-yl)benzoic acid], the IC50 under setting [1] is under 0.1 µM.
In the case of `O=C(O)c1ccc(NC(=O)c2ccc(O)cc2O)cc1` [VI-16, 4-(2,4-dihydroxybenzamido)benzoic acid], under setting [1], the IC50 is 1 to 10 µM.
`Cc1cc(C(=O)O)ccc1-c1ncc2cc(O)ccc2n1` [II-4]: the IC50 under setting [1] was under 0.1 µM.
As to `O=c1[nH]nc(-c2ccc(-c3ccc4cc(O)ccc4n3)cc2)s1` [Compound I-33], the IC50 under setting [1] lay within 0.1 to 1 µM.
As for `O=C(O)c1ccc(/C(=C\C(F)(F)F)C(=O)c2ccc(O)cc2O)cc1` [VI-17, (E)-4-(1-(2,4-dihydroxyphenyl)-4,4,4-trifluoro-1-oxobut-2-en-2-yl)benzoic acid], the IC50 under setting [1] was under 0.1 µM.
With `Cn1c(-c2ccc(C(=O)O)cc2)cc2ccc(O)cc2c1=O` [VIII-11, 4-(7-hydroxy-2-methyl-1-oxo-1,2-dihydroisoquinolin-3-yl)benzoic acid], under setting [3], the IC50 was in the range of 0.1 to 1 µM.
For the compound `O=C(O)c1ccc(Oc2c(-c3ccc(F)cc3)oc3cc(O)ccc3c2=O)cc1` [Compound V-8, 4-(2-(4-fluorophenyl)-7-hydroxy-4-oxo-4H-chromen-3-yloxy)benzoic acid], under setting [1], the IC50 lay in the range of 1 to 10 µM.

Usually IC50 stands for the point on the concentration scale where inhibition reaches its midpoint.
